Converted amounts (≈) assume the structure as drawn. Where two headings read alike, the source gives them in different places. Marks after values point to notes of the source that are not given here. Bounds are passed on as bounds.

Here are results for eleven compounds from publication PMC8842224 (Journal of Medicinal Chemistry, 2022).

The test system of one data set is A3. The conditions noted are these: printed in Figure 2; cited from earlier work.
A further data set relates to A2A. To be noted: cited from earlier work.
The next data set has as its target A1. To be noted: cited from earlier work.
In data set [1] the target is T1, human A1AR (Homo sapiens, UniProt P30542).
T1 sequence (P30542 1-326): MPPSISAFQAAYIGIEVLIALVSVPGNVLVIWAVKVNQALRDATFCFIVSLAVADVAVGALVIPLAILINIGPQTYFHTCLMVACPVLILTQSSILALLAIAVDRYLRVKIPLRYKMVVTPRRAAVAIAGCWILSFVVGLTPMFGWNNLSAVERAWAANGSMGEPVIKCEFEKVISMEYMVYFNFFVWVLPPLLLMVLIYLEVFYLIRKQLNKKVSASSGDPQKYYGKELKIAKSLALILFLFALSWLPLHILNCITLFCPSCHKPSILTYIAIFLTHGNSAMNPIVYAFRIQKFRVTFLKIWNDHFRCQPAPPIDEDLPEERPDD
To be noted: for Exp absolute binding affinity (ΔGbind): experimental, A1AR; for Ki: read-out: hA1 Ki, displacement of specific [3H]DPCPX binding, human CHO cells, ± SEM, n = 3.

Another data set has as its target P-glycoprotein (P-gp) (Homo sapiens, UniProt P08183). To be noted: MDCK-MDR1 cells, NA = not active.
The target of data set [2] is T1, human A1AR. Put plainly: biochemical.
A further data set addresses hA2A (Homo sapiens, UniProt P29274). Put plainly: cAMP functional assay, inhibition of NECA effect. Format: cell-based. The conditions noted are these: read-out: hA2A % Inhib. NECA (1 μM).
Another data set addresses T2, hA2B (Homo sapiens, UniProt P29275).
T2 sequence (P29275 1-332): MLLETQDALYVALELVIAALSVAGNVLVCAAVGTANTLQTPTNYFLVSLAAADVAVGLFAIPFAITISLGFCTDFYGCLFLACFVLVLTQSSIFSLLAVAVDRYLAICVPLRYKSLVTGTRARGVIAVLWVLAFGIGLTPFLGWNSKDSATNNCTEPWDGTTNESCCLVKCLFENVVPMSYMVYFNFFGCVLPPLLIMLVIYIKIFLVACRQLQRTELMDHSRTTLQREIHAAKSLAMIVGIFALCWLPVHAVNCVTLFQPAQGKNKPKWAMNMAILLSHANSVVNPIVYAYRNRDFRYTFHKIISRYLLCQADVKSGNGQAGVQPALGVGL
Put plainly: cAMP functional assay, inhibition of NECA effect. To be noted: read-out: hA2B % Inhib. NECA (1 μM). The format is cell-based.

The target in the next data set is T3, hA3 (Homo sapiens, UniProt P0DMS8).
T3 sequence (P0DMS8 1-318): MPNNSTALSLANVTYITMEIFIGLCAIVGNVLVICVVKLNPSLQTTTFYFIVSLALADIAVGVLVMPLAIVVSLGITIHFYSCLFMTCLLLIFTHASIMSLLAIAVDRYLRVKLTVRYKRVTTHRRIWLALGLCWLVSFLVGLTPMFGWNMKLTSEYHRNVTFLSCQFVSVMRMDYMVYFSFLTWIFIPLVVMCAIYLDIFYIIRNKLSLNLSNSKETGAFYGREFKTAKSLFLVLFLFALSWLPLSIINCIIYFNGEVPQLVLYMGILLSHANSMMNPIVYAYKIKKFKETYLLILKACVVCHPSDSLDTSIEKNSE
In words: cAMP functional assay, inhibition of NECA effect. The format is cell-based. The conditions noted are these: read-out: hA3 % Inhib. NECA (1 μM).

The nature of another data set: in vitro. To be noted: human, microsomes, pH 7.4.
The nature of data set [3]: Aqueous solubility by nephelometry in PBS. The conditions noted are these: pH 7.4.
The next data set deals with human A2AAR (Homo sapiens, UniProt P29274). The conditions noted are these: read-out: hA2A Ki; displacement of specific [3H]ZM241385 binding, human HeLa cells, ± SEM, n = 3.
Chain of human A2AAR (P29274 whole entry): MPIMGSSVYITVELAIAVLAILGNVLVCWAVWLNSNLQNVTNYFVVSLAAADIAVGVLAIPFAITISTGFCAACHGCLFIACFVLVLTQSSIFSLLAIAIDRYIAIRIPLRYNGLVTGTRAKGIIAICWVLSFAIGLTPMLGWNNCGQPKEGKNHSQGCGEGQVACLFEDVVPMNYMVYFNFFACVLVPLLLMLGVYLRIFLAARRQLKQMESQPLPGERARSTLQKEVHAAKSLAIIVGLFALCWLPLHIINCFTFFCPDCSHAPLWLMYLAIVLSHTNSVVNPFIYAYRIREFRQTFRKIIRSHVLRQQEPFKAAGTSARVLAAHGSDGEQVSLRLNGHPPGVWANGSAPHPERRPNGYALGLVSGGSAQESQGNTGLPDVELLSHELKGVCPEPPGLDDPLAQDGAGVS
Another data set has as its target T4, human A2BAR (Homo sapiens, UniProt P29275).
T4 sequence (P29275 1-332): T2 sequence (P29275 1-332)
In words: biochemical. To be noted: read-out: hA2B percentage displacement of specific binding at 1 μM.

The conditions of data set [4]: human microsomes.
For the next data set, the target named is T5, hA1ARs (Homo sapiens, UniProt P30542).
T5 sequence (P30542 1-326): T1 sequence (P30542 1-326)
To be noted: NECA 100 nM, forskolin 3 μM.

Chain of hA2A (P29274 whole entry): as above
Chain of P-glycoprotein (P-gp) (P08183 whole entry): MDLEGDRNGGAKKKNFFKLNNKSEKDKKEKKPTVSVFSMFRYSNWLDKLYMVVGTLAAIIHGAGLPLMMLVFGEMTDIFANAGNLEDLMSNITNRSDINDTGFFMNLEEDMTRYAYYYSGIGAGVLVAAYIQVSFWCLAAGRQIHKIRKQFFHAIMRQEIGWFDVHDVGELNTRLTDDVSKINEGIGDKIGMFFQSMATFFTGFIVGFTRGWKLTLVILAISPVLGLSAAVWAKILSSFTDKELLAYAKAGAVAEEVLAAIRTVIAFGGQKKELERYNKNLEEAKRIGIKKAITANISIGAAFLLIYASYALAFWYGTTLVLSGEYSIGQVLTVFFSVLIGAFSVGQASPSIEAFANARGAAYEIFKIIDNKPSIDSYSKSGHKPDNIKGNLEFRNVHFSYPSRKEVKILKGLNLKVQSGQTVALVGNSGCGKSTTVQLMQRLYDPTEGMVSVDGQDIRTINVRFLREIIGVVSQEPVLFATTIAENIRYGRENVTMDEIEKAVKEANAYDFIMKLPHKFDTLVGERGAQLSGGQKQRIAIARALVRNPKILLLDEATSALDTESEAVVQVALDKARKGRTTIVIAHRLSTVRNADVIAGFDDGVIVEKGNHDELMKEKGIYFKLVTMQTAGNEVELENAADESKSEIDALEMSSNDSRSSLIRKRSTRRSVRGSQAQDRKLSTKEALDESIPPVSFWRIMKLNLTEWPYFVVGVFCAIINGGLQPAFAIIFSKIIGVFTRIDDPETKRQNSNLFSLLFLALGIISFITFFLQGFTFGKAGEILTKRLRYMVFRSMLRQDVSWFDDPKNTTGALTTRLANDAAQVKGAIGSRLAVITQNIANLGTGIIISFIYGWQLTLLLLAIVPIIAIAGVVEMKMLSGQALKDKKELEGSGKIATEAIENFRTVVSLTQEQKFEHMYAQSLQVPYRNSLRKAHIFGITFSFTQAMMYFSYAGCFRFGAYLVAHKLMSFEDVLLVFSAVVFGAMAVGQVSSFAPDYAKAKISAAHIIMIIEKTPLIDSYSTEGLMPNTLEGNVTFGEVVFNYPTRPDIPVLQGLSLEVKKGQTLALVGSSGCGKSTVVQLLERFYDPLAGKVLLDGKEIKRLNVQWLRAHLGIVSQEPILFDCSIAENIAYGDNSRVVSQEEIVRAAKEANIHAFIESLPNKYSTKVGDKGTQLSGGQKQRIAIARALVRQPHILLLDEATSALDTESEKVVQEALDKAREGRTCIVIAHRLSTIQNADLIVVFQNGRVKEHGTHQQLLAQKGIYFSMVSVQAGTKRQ

As to `Nc1cc(-c2ccc3c(c2)OCO3)nc(-c2ccccc2)n1` [15b], the “A3 (1μM)” value in the data set with A3 is 15%.

As for `N#Cc1c(NC(=O)C2CCCC2)nc(-c2ccccc2)nc1-c1ccc2c(c1)OCO2` [15c], in the data set on A2A, the “A2A (1μM)” value is listed as 14%. Besides, the “A3 (1μM)” value in the data set on A3 was 27%.

As to `Nc1nc(-c2ccccc2)cc(-c2ccccc2)n1` [17a], the Ki on A1 was 17.7 nM.

With `CNc1nc(-c2ccccc2)c(C#N)c(-c2ccc(F)cc2F)n1` [19af], the “Exp absolute binding affinity (ΔGbind)” value at human A1AR [1] is reported as -10.42 kcal/mol. Further, the values for the Ki at human A1AR [1] and on human A1AR [2] were 22.6 ± 7 nM and below 50 nM, respectively. The “Calcein-AM transport inhibition at 100 μM” value on P-glycoprotein (P-gp) is 44% ^a.

For `CNc1nc(-c2ccccc2)c(C#N)c(-c2ccc3c(c2)OCO3)n1` [19ao], the inhibition at 1 µM at hA2A was determined as 18%; on hA2B, 1%; on hA3, 5%. Also, the “Calcein-AM transport inhibition at 100 μM” value at P-glycoprotein (P-gp) is given as 59% ^a. In “in vitro”, this compound showed a half-life of 15.2 min. The same compound returned a solubility at 2 h in data set [3] of 5.4 µM (≈ 1.78 µg/mL).

For `CCNc1nc(-c2ccccc2)c(C#N)c(-c2cccnc2)n1` [19be], the inhibition constant (Ki) on human A1AR [1] was determined as 11.8 ± 3.5 nM; on human A2AAR it was 335 ± 18 nM. On human A2BAR, the inhibition at 1 µM amounted to 1%.

`CNc1nc(-c2ccccc2)c(C#N)c(-c2cccc(Cl)c2)n1` [19l]: the inhibition at 1 µM is 16% at hA2A, 11% on hA2B and 9% at hA3. For the same compound, the half-life in the data set “in vitro” was determined as 6.24 min. In data set [3], this compound came in with a solubility at 2 h of 75.4 µM (≈ 24.2 µg/mL).

Consider `CNc1nc(-c2ccccc2)c(C#N)c(-c2ccc(F)cc2)n1` [19v], for which the inhibition at 1 µM on hA2A turned out to be 25%; on hA3, 5%. In addition, the half-life in the data set “in vitro” stood at 18.6 min. For the same compound, in data set [3], the concentration in solution (solubility at 2 h) came to 18 µM (≈ 5.48 µg/mL).

Take `CNc1nc(-c2ccccc2)c(C#N)c(-c2ccc(O)cc2)n1` [19z]: on human A1AR [1], the A1AR selectivity was above 1000 fold, the “Exp absolute binding affinity (ΔGbind)” value is given as -10.02 kcal/mol and the Ki is 44.6 ± 3.2 nM. At human A1AR [1] (Lig 2 relative to Lig 1 = 19a), the “Exp relative binding affinity (ΔΔGbind)” value turned out to be 0.94 kcal/mol. For the same compound, the “Exp relative binding affinity (ΔΔGbind)” value on human A1AR [1] (Lig 2 relative to Lig 1 = 19ad) came out at 0.28 kcal/mol. For the same compound, the Ki at human A1AR [2] is below 50 nM.

As for `C[C@]12CC[C@H]3[C@@H](CCC4=CC(=O)CC[C@@]43C)[C@@H]1CC[C@@H]2O` [Testosterone, reference compound], the “% Remanent (sampling time 60 min)” value in data set [4] was 8.77%. Further, in “in vitro”, the half-life worked out at 17.1 min and the intrinsic clearance (microsomal CLint) is 27.8 µL/min/mg.

In the case of `CCCn1c(=O)c2[nH]c(-c3ccc(OCC(=O)NCCN)cc3)nc2n(CCC)c1=O` [XAC], the “functional behaviour at hA1ARs (cAMP)” value on hA1ARs was “reverse the inhibitory effect of NECA on FSK-induced cAMP accumulation”.
